# Test results from US8536164B2, “Fused pyridine compounds as casein kinase inhibitors” (Pfizer Inc., priority 2010, dated 2013).
# How the values were obtained:
# CKIδ wild type = CKIδ wild type (Homo sapiens, UniProt P48730); test: CK1δ kinase assay (Kinase-Glo); assay type: biochemical; settings: 10 μM ATP, 2 nM CKIδ, 85 min at 25° C.; read-out: CK1 δ IC50
# Description: (§1) The CK1δ kinase assay was performed in a 40 μl final volume in buffer containing 50 mM Tris, pH 7.5, 10 mM MgCl2, 1 mM dithiothreitol, 100 μg/mL BSA with 10 μM ATP, 2 nM CKIδ wild type, and 42 μM peptide substrate PLSRTLp[…] (Flotow et al., 1990) in the presence of 1 μl of CKIδ inhibitor or 4% DMSO. The reaction was incubated for 85 min at 25° C.; detection was carried out as described for the Kinase-Glo Assay (Promega). Luminescent output was measured on the Perkin Elmer Envision plate reader (PerkinElmer, Waltham, Mass.).
# CKI ε wild type = CKI ε wild type (Homo sapiens, UniProt P49674); test: CK1ε kinase assay (Kinase-Glo); assay type: biochemical; settings: 10 μM ATP, 2.5 nM CKI ε, 70 min at 25° C.; read-out: CK1 ε:IC50
# Description: as §1, with “The CK1ε” for “The CK1δ”, “a 40-μl” for “a 40 μl”, “ATP, 2.5” for “ATP, 2”, “nM CKI ε” for “nM CKIδ”, “of CKI ε” for “of CKIδ”, “for 70” for “for 85”
# [1] = biological target: T1, human CK1δ (Cos 7 cells cotransfected with mouse Per3-GFP) (Homo sapiens, UniProt P48730); test: CK1 WCA HCS nuclear translocation assay (CK1δ); assay type: cell-based; settings: inhibition of mPer3-GFP translocation to the nucleus, overnight exposure, read-out: CK1 δ WCA EC50
# T1 construct: His tag of the vector pcDNA4/hisA (only the vector name is printed); expressed in transfected cells; host or cells: Cos 7 cells
# Description: (§2) CK1 WCA HCS Nuclear Translocation Assay.
# (§3) Cos 7 cells were maintained at 37° C. in 5% CO2 in Dulbecco's Modified Eagle Medium (Gibco 11995) supplemented with 10% fetal bovine serum. Log-phase cells were dislodged with 5 min treatment of TrypLE Express (Gibco 12605) and viable cell count was determined with Cedex cell counter. Cells were diluted in DMEM medium to a density of 1.5e5 viable cells/mL in ⅔ of the final volume of final transfected cell mix. Cells were cotransfected with two plasmid DNAs, mouse Per3-GFP (green fluorescent protein) in pd2EGFP-N1 vector and human CKI in pcDNA4/hisA vector (for CK1Epsilon at a ratio of 1:5 respectively; for CK1δ at a ratio of 1:11 respectively), using Lipofectamine 2000 reagent (Invitrogen) according to the manufacturer's recommendations. The transfection mix contained approximately 0.83 μg/mL of DNA and 6 μL/mL of Lipofectamine 2000, in a total of ⅓ of the final transfection volume in Opti-MEM I medium (Invitrogen). After 20 min at rt, the cell mix was combined with the DNA transfection mix, per manufacturer instructions. 50 μL of the transfected cell suspension was dispensed per well by multidrop dispenser into Greiner 384-well Cellcoat (PDL) plates (Greiner #781946).
# (§4) Compounds were solubilized in 100% DMSO, diluted with Opti-MEM I to a 4× concentration before addition to plated cells. After overnight exposure at 37° C. in a CO2 incubator, cells were fixed by the addition of 12% paraformaldehyde (Electron Microscopy Sciences, Hatfield, Pa.) in phosphate-buffered saline (PBS) with 20% sucrose to a final concentration of 4%, and then the cells were incubated for 30 min at rt. Fixative was removed, and cells were washed with PBS and then stained with 0.4 μg/ml Hoechst dye (Invitrogen) in blocking buffer containing 4% goat serum (Vector Labs s-1000) and 0.1% TritonX (Sigma T8787) for 1 h. Cells were washed again with PBS and stored at 4° C. in PBS or scanned immediately with the Cellomics ArrayScan VTI. CKIδ dependent nuclear localization of the GFP-tagged mPer3 protein was quantitated using the Cellomics ArrayScan VTI system utilizing the Cytoplasm to Nucleus translocation bioapplication to calculate the Nuclear-Cytoplasmic Intensity difference. Inhibitors of CK1 δ/ε were tested across a dose response curve to evaluate their ability to inhibit mPer3-GFP translocation to the nucleus. Cells with a total intensity of mPER3:GFP expression equal to or greater than 20,000 are included in analysis.
# [2] = biological target: T2, human CK1Epsilon (Cos 7 cells cotransfected with mouse Per3-GFP) (Homo sapiens, UniProt P49674); test: CK1 WCA HCS nuclear translocation assay (CK1ε); assay type: cell-based; settings: inhibition of mPer3-GFP translocation to the nucleus, overnight exposure, read-out: CK1 ε WCA EC50
# T2 construct: His tag of the vector pcDNA4/hisA (only the vector name is printed); expressed in transfected cells; host or cells: Cos 7 cells
# Description: as §2, §3, §4
# CKIδ wild type, sequence (P48730 whole entry): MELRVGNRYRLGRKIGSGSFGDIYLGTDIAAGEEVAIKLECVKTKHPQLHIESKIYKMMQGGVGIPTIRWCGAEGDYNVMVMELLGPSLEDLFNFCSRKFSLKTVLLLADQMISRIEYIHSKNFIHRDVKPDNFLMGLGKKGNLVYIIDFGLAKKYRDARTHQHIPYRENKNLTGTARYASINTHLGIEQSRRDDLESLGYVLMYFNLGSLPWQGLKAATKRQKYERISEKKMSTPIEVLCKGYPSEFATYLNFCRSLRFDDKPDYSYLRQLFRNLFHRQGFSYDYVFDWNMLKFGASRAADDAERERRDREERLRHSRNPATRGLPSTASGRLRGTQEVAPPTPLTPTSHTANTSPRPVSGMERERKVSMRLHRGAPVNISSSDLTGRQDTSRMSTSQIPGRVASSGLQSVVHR
# T1 sequence (P48730 whole entry): as above
# CKI ε wild type, sequence (P49674 whole entry): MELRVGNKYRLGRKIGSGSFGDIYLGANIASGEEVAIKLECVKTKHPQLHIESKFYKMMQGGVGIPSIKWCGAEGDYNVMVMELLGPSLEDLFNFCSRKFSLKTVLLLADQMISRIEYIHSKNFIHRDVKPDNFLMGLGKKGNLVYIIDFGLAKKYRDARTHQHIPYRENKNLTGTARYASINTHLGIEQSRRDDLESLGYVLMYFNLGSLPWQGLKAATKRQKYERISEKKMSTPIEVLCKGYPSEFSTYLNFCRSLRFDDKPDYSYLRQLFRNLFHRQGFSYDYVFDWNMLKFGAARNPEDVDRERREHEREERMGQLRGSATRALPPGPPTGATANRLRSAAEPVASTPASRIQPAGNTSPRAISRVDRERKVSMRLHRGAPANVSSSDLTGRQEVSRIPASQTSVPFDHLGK
# T2 sequence (P49674 whole entry): as above
IC50 (CKIδ wild type) [nM],IC50 (CKI ε wild type) [nM],EC50 [1] [nM],EC50 [2] [nM],SMILES
3.11,10.8,13.5,62.4,"Cn1cc(-c2ccnc3c2CN(S(C)(=O)=O)C3)c(-c2ccc(F)cc2)n1 [Example 10, 4-[3-(4-fluorophenyl)-1-methyl-1H-pyrazol-4-yl]-6-(methylsulfonyl)-6,7-dihydro-5H-pyrrolo[3,4-b]pyridine]"
12.4,61.5,99,468,"CCN1Cc2nccc(-c3cn(C)nc3-c3ccc(F)cc3)c2C1=O [Example 34, 6-ethyl-4-[3-(4-fluorophenyl)-1-methyl-1H-pyrazol-4-yl]-6,7-dihydro-5H-pyrrolo[3,4-b]pyridin-5-one]"
6.01,27.6,39.2,291,"Cn1cc(-c2ccnc3c2OCCNC3)c(-c2ccc(F)cc2)n1 [Example 7, 9-[3-(4-fluorophenyl)-1-methyl-1H-pyrazol-4-yl]-2,3,4,5-tetrahydropyrido[2,3-f][1,4]oxazepine]"
,,84.7,361,"Cn1cc(-c2ccnc3c2CN(C(=O)Cc2ncccn2)C3)c(-c2ccc(F)cc2)n1 [Example 20, 4-[3-(4-fluorophenyl)-1-methyl-1H-pyrazol-4-yl]-6-(pyrimidin-2-ylacetyl)-6,7-dihydro-5H-pyrrolo[3,4-b]pyridine]"
13.9,72.7,122,684,"Cn1cc(-c2ccnc3c2C(=O)NC3)c(-c2ccc(F)cc2)n1 [Example 4, 4-[3-(4-fluorophenyl)-1-methyl-1H-pyrazol-4-yl]-6,7-dihydro-5H-pyrrolo[3,4-b]pyridin-5-one]"
7.91,26.9,59.8,355,"Cn1cc(-c2ccnc3c2C(=O)OC3)c(-c2ccc(F)cc2)n1 [Example 1, 4-(3-(4-fluorophenyl)-1-methyl-1H-pyrazol-4-yl)furo[3,4-b]pyridin-5(7H)-one]"
,,103,668,"CCS(=O)(=O)N1Cc2nccc(-c3cn(C)nc3-c3ccc(F)cc3)c2C1 [Example 11, 6-(ethylsulfonyl)-4-[3-(4-fluorophenyl)-1-methyl-1H-pyrazol-4-yl]-6,7-dihydro-5H-pyrrolo[3,4-b]pyridine]"
,,39.5,195,"CC(C)C(=O)N1Cc2nccc(-c3cn(C)nc3-c3ccc(F)cc3)c2C1 [Example 18, 4-[3-(4-fluorophenyl)-1-methyl-1H-pyrazol-4-yl]-6-isobutyryl-6,7-dihydro-5H-pyrrolo[3,4-b]pyridine]"
,,38.1,218,"Cn1cc(-c2ccnc3c2CN(C(=O)C2CCOC2)C3)c(-c2ccc(F)cc2)n1 (stereo not shown) [Example 16, 4-[3-(4-fluorophenyl)-1-methyl-1H-pyrazol-4-yl]-6-(tetrahydrofuran-3-ylcarbonyl)-6,7-dihydro-5H-pyrrolo[3,4-b]pyridine]"
